According to PubChem BioAssay AID2060627 (Molecular Pharmacology Branch, DTP, NCI, 2025):

Test system: 156681-154-R-J1-PDC complex spheroid viability
Test: Anticancer human tumor 156681-154-R-J1-PDC patient-derived melanoma cell line growth inhibition [CLK]
Conditions: for IC50: curve of first compound; for viability, T/C: stronger effect = lower value
Source text: A high-throughput screen of multi-cell type tumor spheroids was designed to identify active combinations of […] and targeted small molecules. Complex spheroids include a stromal component modeled by human endothelial cells (HUVEC) and fibroblasts modeled by human mesenchymal stem cells (MSCs). The concentration ranges selected for each drug and investigational agent were based upon clinically achievable concentrations if the clinical Cmax of the agent was known.
Compounds. The drugs and investigational agents: cirtuvivint (SM08502; NSC835563), CC-671 (NSC850746), vemurafenib (NSC761431), tapotoclax (NSC804041), sotorasib (NSC818433), adagrasib (NSC831453), MRTX-1133 (NSC836407), BAY2416964 (NSC825713), copanlisib (NSC816437), inavolisib (NSC800729), abemaciclib (NSC768073), osimertinib (NSC779217), entinostat (NSC756642), eltanexor (KPT-8602, NSC794443), venetoclax (NSC766270), ceralasertib (NSC777638), bortezomib (NSC756655), olaparib (NSC753686), talazoparib (NSC767125), alisertib (NSC759677), peposertib (NSC802822), gemcitabine (NSC613327), 5-fluorouracil (NSC19893), SN-38 (NSC673596), oxaliplatin (NSC266046), paclitaxel (NSC125973), and doxorubicin (NSC123127), were obtained from the National Cancer Institute (NCI) Developmental Therapeutics Program Chemical Repository. The FDA-approved anticancer drug set is available from the Developmental Therapeutics Program at https://dtp.cancer.gov/organization/dscb/obtaining/available plates.htm. […] The stock solutions were prepared in dimethyl sulfoxide (DMSO, Sigma-Aldrich, St. Louis, MO, cat. D2650), except for the platinum complexes which were prepared in saline (Quality Biological, Gaithersburg, MD, cat. 114-055-101), at 800-fold the tested concentration and stored at -70 degrees C prior to their use. All drugs and investigational agents were tested over a range starting from a high concentration at or near the clinical Cmax and decreasing in half-log increments. If the clinical Cmax for an agent had not been determined, the highest concentration tested was 10 microM.
Cell Culture. All cells were maintained in an incubator at 37 degrees C and 5% CO2 with 95% humidity. The PDC lines were cultured according to standard operating procedures established by the NCI PDMR. Briefly, all PDCs were thawed and cultured in Matrigel-coated flasks prepared with a working solution of 1X Ham's F-12 nutrient mix, without supplementation (Invitrogen, Waltham, MA, cat. 11765054), 100 U/mL penicillin-streptomycin (Invitrogen, cat. 15140122), and 2.5% Matrigel (Corning Inc., Corning, NY, cat. 354248) for the first three passages. The 947758-054-R-J2-PDC line was cultured in 6B/Colon 1A media, which includes advanced DMEM/F-12 (Thermo Fisher Scientific, cat. 12634028), 10 mM HEPES (Thermo Fisher Scientific, cat. 15630080), 1X GlutaMAX supplement (Thermo Fisher Scientific, cat. 35050061), 0.1 mg/mL primocin (InvivoGen, cat. ant-pm-2), 10% defined fetal bovine serum, heat inactivated (HyClone Laboratories Inc., cat. SH30070.03HI), 1.25 mM N-Acetyl-L-cysteine (Sigma-Aldrich, cat. A9165), 10 mM nicotinamide (Sigma-Aldrich, cat. N0636), 1X B-27 supplement (Thermo Fisher Scientific, cat. 17504044), 1X N-2 supplement (Thermo Fisher Scientific, cat. 17502048), and 10 microM Y-27632 dihydrochloride (Tocris Bioscience, cat. 1254). The 876862-298-R-J1-PDC was cultured in 6E media, which includes all 6B/Colon 1A media components plus 50% L-WRN conditioned media (ATCC, cat. CRL-3276), 50 ng/mL recombinant human EGF recombinant protein (hEGF; Thermo Fisher Scientific, cat. PHG0311), 10 ng/mL recombinant human fibroblast growth factor 10 (hGFG-10; PeproTech, cat. 100-26), 1 ng/mL recombinant human fibroblast growth factor 2 (hFGF-2; PeproTech, cat. 100-18B), and 1 µM prostaglandin E2 (PGE2; Tocris, cat. 2296). The 227483-062-R1-J1-PDC line was cultured in Panc media, containing all 6E components except hFGF-2, with the addition of 500 nM SB-431542 (Selleckchem, cat. S1067) and 10 nM gastrin (Tocris, cat. 3006). […]
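Also: spheroids exposed to the agents for seven days.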
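For viability, T/C in this document: 100% = DMSO vehicle control viability.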

With `C=CC(=O)Nc1cc(Nc2nccc(-c3cn(C)c4ccccc34)n2)c(OC)cc1N(C)CCN(C)C` + CN1CCN(c2cc(C(=O)Nc3cc4cc(-c5cnn(C)c5)ccc4cn3)ccn2)CC1 as the compound, how does the IC50 (second compound 0.0316 µM) read?
Its IC50 is greater than 300 nM.

And the IC50 (second compound 0.1 µM)?
Its IC50 is greater than 300 nM.

And the IC50 (second compound 0.316 µM)?
The IC50 was less than 0.949 nM.

What about the IC50 (second compound 1 µM) of the same compound?
Its IC50 is less than 0.949 nM.

What about the IC50 (second compound 3.16 µM) of the same compound?
Its IC50 is less than 0.949 nM.

And the IC50 (second compound 10 µM)?
Its IC50 is less than 0.949 nM.

What about the viability, T/C (second compound 0.0316 µM, first compound 0.000949 µM) of the same compound?
The viability, T/C was 102%.

What about the viability, T/C (second compound 0.0316 µM, first compound 0.003 µM) of the same compound?
The viability, T/C was 91.7%.

What about the viability, T/C (second compound 0.0316 µM, first compound 0.00949 µM) of the same compound?
The viability, T/C was 112%.

And the viability, T/C (second compound 0.0316 µM, first compound 0.03 µM)?
The viability, T/C was 89.8%.

And the viability, T/C (second compound 0.0316 µM, first compound 0.0949 µM)?
The viability, T/C was 94.8%.

And the viability, T/C (second compound 0.0316 µM, first compound 0.3 µM)?
Its viability, T/C is 90%.

And the viability, T/C (second compound 0.1 µM, first compound 0.000949 µM)?
Its viability, T/C is 99.7%.

And the viability, T/C (second compound 0.1 µM, first compound 0.003 µM)?
Its viability, T/C is 90.2%.

And the viability, T/C (second compound 0.1 µM, first compound 0.00949 µM)?
Its viability, T/C is 97.7%.

And the viability, T/C (second compound 0.1 µM, first compound 0.03 µM)?
The viability, T/C was 94.7%.

What about the viability, T/C (second compound 0.1 µM, first compound 0.0949 µM) of the same compound?
The viability, T/C was 77.6%.

And the viability, T/C (second compound 0.1 µM, first compound 0.3 µM)?
Its viability, T/C is 79.9%.

And the viability, T/C (second compound 0.316 µM, first compound 0.000949 µM)?
Its viability, T/C is 19.2%.

What about the viability, T/C (second compound 0.316 µM, first compound 0.003 µM) of the same compound?
The viability, T/C was 26.4%.

And the viability, T/C (second compound 0.316 µM, first compound 0.00949 µM)?
The viability, T/C was 23.4%.

And the viability, T/C (second compound 0.316 µM, first compound 0.03 µM)?
Its viability, T/C is 13.1%.

What about the viability, T/C (second compound 0.316 µM, first compound 0.0949 µM) of the same compound?
Its viability, T/C is 24.2%.

What about the viability, T/C (second compound 0.316 µM, first compound 0.3 µM) of the same compound?
Its viability, T/C is 11.1%.

And the viability, T/C (second compound 1 µM, first compound 0.000949 µM)?
The viability, T/C was 0.2%.

And the viability, T/C (second compound 1 µM, first compound 0.003 µM)?
The viability, T/C was 0.66%.

And the viability, T/C (second compound 1 µM, first compound 0.00949 µM)?
The viability, T/C was 0.19%.

And the viability, T/C (second compound 1 µM, first compound 0.03 µM)?
The viability, T/C was 0.27%.

And the viability, T/C (second compound 1 µM, first compound 0.0949 µM)?
Its viability, T/C is 0.26%.

And the viability, T/C (second compound 1 µM, first compound 0.3 µM)?
The viability, T/C was 1.38%.

What about the viability, T/C (second compound 3.16 µM, first compound 0.000949 µM) of the same compound?
The viability, T/C was 0.16%.

And the viability, T/C (second compound 3.16 µM, first compound 0.003 µM)?
Its viability, T/C is 1.53%.

What about the viability, T/C (second compound 3.16 µM, first compound 0.00949 µM) of the same compound?
Its viability, T/C is 0.47%.

What about the viability, T/C (second compound 3.16 µM, first compound 0.03 µM) of the same compound?
Its viability, T/C is 0.12%.

And the viability, T/C (second compound 3.16 µM, first compound 0.0949 µM)?
Its viability, T/C is 1.26%.

What about the viability, T/C (second compound 3.16 µM, first compound 0.3 µM) of the same compound?
Its viability, T/C is 0.93%.

What about the viability, T/C (second compound 10 µM, first compound 0.000949 µM) of the same compound?
The viability, T/C was 1.34%.

What about the viability, T/C (second compound 10 µM, first compound 0.003 µM) of the same compound?
The viability, T/C was 0.16%.

What about the viability, T/C (second compound 10 µM, first compound 0.00949 µM) of the same compound?
Its viability, T/C is 0.96%.

And the viability, T/C (second compound 10 µM, first compound 0.03 µM)?
Its viability, T/C is 1.65%.

What about the viability, T/C (second compound 10 µM, first compound 0.0949 µM) of the same compound?
Its viability, T/C is 2.39%.

And the viability, T/C (second compound 10 µM, first compound 0.3 µM)?
Its viability, T/C is 2.57%.
